Assay results from patent US20040235007A1, “Method for detecting negatively supercoiled DNA” (National Institute of Genetics, priority 2003, published 2004).

Assays:
hsp70-coding region = assay: Southern analysis of psoralen crosslinking in salivary glands; type: cell-based, Drosophila melanogaster; details: heat-shocked salivary gland chromosomes treated with α-amanitin prior to the crosslinking step; FIG. 3 lanes 6 and 7
Method: (§1) Drosophila melanogaster Oregon R was grown at 18° C. According to the test protocol, some third-instar larvae were subjected to heat shock treatment; i.e., the larvae were collected in a polypropylene tube, and the tube was submerged in a 37° C. water bath for 10 minutes. Salivary glands were obtained through dissection of the larvae in a dissection buffer (10 mM HEPES-KOH (pH 7.6), 5 mM MgCl2, 5 mM KCl, 130 mM NaCl, 1% polyethylene glycol 6000). Also according to the test protocol, some of the salivary gland specimens were exposed to X-ray irradiation for 60 minutes at a dose rate of about 3 Gy/min (TORREX CABINET X-RAY SYSTEM Model TRX2800, Faxitron), whereby nicks were introduced into DNA.
Application of heat shock and dissection of larvae were performed in a manner similar to those employed for staining. […]
After electrophoresis, the gel was incubated with a denaturing solution (0.5M NaOH, 1.5M NaCl) at 65° C. for 100 minutes for reverse crosslinking of DNA with psoralen. […] Hybridization signals were detected by use of X-ray film. […]
The protocol will be described briefly as follows. […] The DNA fragments were blotted onto a nylon membrane. hsp70 located at 87A7 (FIG. 1, CRs and DDS) was analyzed using probes through the Southern method. […]

[1] = tested on: negative supercoils of DNA on salivary gland chromosomes; assay: Staining of salivary gland chromosomes with biotinylated psoralen / Alexa 488-labeled streptavidin; type: cell-based, Drosophila melanogaster
Method: as §1
Four or five pairs of salivary glands were treated with a dissection buffer (40 μL) containing 0.01% digitonin and rinsed with a dissection buffer containing no digitonin. Subsequently, the resultant salivary glands were treated with a dissection buffer containing 0.2 ng/ml biotinylated psoralen for 10 minutes. […] Br-UTP was detected with anti-BrdU monoclonal antibody (Roche) and rhodamin-labeled anti-mouse IgG antibody.
Biotinylated psoralen was detected with Alexa 488-labeled streptavidin (Molecular Probe). […] Fluoroimages were analyzed with a Carl Zeiss Axioplan 2 microscope and IP lab software.
In order to visualize negative supercoils of DNA on salivary gland chromosomes throughout the entire genome, we have extended the psoralen crosslinking protocol, using a protocol in which biotinylated psoralen is detected with fluorescence-labeled streptavidin. […] Biotinylated psoralen was detected with Alexa 488-labeled streptavidin. […] Such signals were not detected when the chromosomes had been treated with a psoralen-free buffer, or when the crbsslinking step was not performed after treatment with psoralen. […] When chromosomes had been irradiated with X-ray (180 Gy) before crosslinking with biotinylated psoralen to thereby introduce nicks into the DNA, psoralen signals which may otherwise appear in interbands and puffs were not detected (FIGS. 5A to 5C). […]

[2] = heat shocked larvae, α-amanitin treatment prior to crosslinking, FIGS. 7D to 7F

Substance: α-Amanitin
- crosslink-related signals (psoralen crosslinking, Southern) (hsp70-coding region): substantially no crosslink-related signals were detected
- configuration of heat shock puffs [1, 2]: did not affect
- psoralen signals in heat shock puffs [1, 2]: not detected
- psoralen signals in interbands and puffs ([1]; non-heat shocked, 3 μg/mL α-amanitin before crosslinking with biotinylated psoralen, FIGS. 5D and 5E): undetected
